In the supplement of paper PMC10307832:

Assays:
Experiment in all cases: relative viability (nuclei count vs DMSO), 5 days (fraction); higher = more cells survive
Doxorubicin + Crizotinib = compound: COc1cccc2c1C(=O)c1c(O)c3c(c(O)c1C2=O)C[C@@](O)(C(=O)CO)C[C@@H]3O[C@H]1C[C@H](N)[C@H](O)[C@H](C)O1 [Doxorubicin] + C[C@@H](Oc1cc(-c2cnn(C3CCNCC3)c2)cnc1N)c1c(Cl)ccc(F)c1Cl [Crizotinib] (partner 1 µM)
Outline: (§1)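 After 5 days of treatment, lung cancer cells in 1536-well plates were fixed and stained in a single step (final 0.05% Triton X-100, 1% formaldehyde, 1 ug/ml Hoechst) and their nuclei counted on 4× images. Treatment had been applied by pin tool the day after seeding as one drug alone or as a fixed anchor-drug dose with five library-drug doses (not always all listed) in √10 steps. Relative viability is the nuclei count of treated wells divided by that of vehicle wells, and values are medians of duplicate plates.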

BAY61-3606 + Palbociclib = compound: COC1=C(C=C(C=C1)C2=CC3=NC=CN3C(=N2)NC4=C(C=CC=N4)C(=O)N)OC [BAY61-3606] + CC(=O)c1c(C)c2cnc(Nc3ccc(N4CCNCC4)cn3)nc2n(C2CCCC2)c1=O [Palbociclib] (partner 0.5 µM)
Outline: as §1

BAY61-3606 + AZD7762 = compound: COC1=C(C=C(C=C1)C2=CC3=NC=CN3C(=N2)NC4=C(C=CC=N4)C(=O)N)OC [BAY61-3606] + NC(=O)Nc1cc(-c2cccc(F)c2)sc1C(=O)N[C@H]1CCCNC1 [AZD7762] (partner 0.2 µM)
Outline: as §1

Doxorubicin + Decitabine = compound: COc1cccc2c1C(=O)c1c(O)c3c(c(O)c1C2=O)C[C@@](O)(C(=O)CO)C[C@@H]3O[C@H]1C[C@H](N)[C@H](O)[C@H](C)O1 [Doxorubicin] + Nc1ncn([C@H]2C[C@H](O)[C@@H](CO)O2)c(=O)n1 [Decitabine] (partner 2 µM)
Outline: as §1

Row | Cell Line | relative viability (Doxorubicin + Crizotinib; first compound 0.001 µM) | relative viability (Doxorubicin + Crizotinib; first compound 0.003162 µM) | relative viability (Doxorubicin + Crizotinib; first compound 0.01 µM) | relative viability (Doxorubicin + Crizotinib; first compound 0.03162 µM) | relative viability (Doxorubicin + Crizotinib; first compound 0.1 µM) | relative viability (BAY61-3606 + Palbociclib; first compound 0.02 µM) | relative viability (BAY61-3606 + Palbociclib; first compound 0.06325 µM) | relative viability (BAY61-3606 + Palbociclib; first compound 0.2 µM) | relative viability (BAY61-3606 + Palbociclib; first compound 0.6325 µM) | relative viability (BAY61-3606 + Palbociclib; first compound 2 µM) | relative viability (BAY61-3606 + AZD7762; first compound 0.02 µM) | relative viability (BAY61-3606 + AZD7762; first compound 0.06325 µM) | relative viability (BAY61-3606 + AZD7762; first compound 0.2 µM) | relative viability (BAY61-3606 + AZD7762; first compound 0.6325 µM) | relative viability (BAY61-3606 + AZD7762; first compound 2 µM) | relative viability (Doxorubicin + Decitabine; first compound 0.001 µM) | relative viability (Doxorubicin + Decitabine; first compound 0.003162 µM) | relative viability (Doxorubicin + Decitabine; first compound 0.01 µM) | relative viability (Doxorubicin + Decitabine; first compound 0.03162 µM) | relative viability (Doxorubicin + Decitabine; first compound 0.1 µM)
1 | NCI-H2405 | 0.843 | 0.869 | 0.846 | 0.871 | 0.85 | 0.564 | 0.517 | 0.503 | 0.592 | 0.494 | 0.832 | 0.658 | 0.748 | 0.658 | 0.496 | 0.711 | 0.759 | 0.774 | 0.579 | 0.497
2 | NCI-H2170 | 1.25 | 1.46 | 1.23 | 1.03 | 1.32 | 0.338 | 0.404 | 0.425 | 0.412 | 0.306 | 0.895 | 0.913 | 0.885 | 0.85 | 0.585 | 0.498 | 0.472 | 0.435 | 0.396 | 0.491
3 | NCI-H1944 | 1.09 | 1.16 | 1.03 | 1 | 1.14 | 0.344 | 0.313 | 0.31 | 0.338 | 0.213 | 0.477 | 0.533 | 0.635 | 0.592 | 0.485 | 0.441 | 0.506 | 0.403 | 0.372 | 0.439
4 | NCI-H650 | 0.878 | 0.657 | 0.562 | 0.568 | 0.534 | 0.34 | 0.337 | 0.371 | 0.365 | 0.306 | 1.18 | 0.887 | 0.889 | 0.998 | 0.999 | 0.287 | 0.336 | 0.283 | 0.265 | 0.304
5 | EKVX | 0.865 | 1.02 | 0.792 | 1.02 | 0.948 | 0.405 | 0.45 | 0.385 | 0.496 | 0.45 | 0.742 | 0.673 | 0.644 | 0.753 | 0.665 | 0.389 | 0.34 | 0.307 | 0.296 | 0.375
6 | EPLC-272H | 1.37 | 0.965 | 1.01 | 0.806 | 0.861 | 0.322 | 0.338 | 0.373 | 0.352 | 0.318 | 0.223 | 0.193 | 0.313 | 0.186 | 0.173 | 0.382 | 0.324 | 0.32 | 0.387 | 0.423
7 | NCI-H322M | 1.02 | 1.07 | 0.86 | 0.922 | 0.893 | 0.522 | 0.47 | 0.511 | 0.49 | 0.447 | 0.528 | 0.525 | 0.579 | 0.522 | 0.571 | 0.757 | 0.58 | 0.735 | 0.688 | 0.553
8 | NCI-H1792 | 0.975 | 0.974 | 1.01 | 0.924 | 0.943 | 0.677 | 0.61 | 0.659 | 0.747 | 0.698 | 0.783 | 0.538 | 0.802 | 0.62 | 0.455 | 0.622 | 0.677 | 0.57 | 0.485 | 0.525
9 | HCC-827 | 0.982 | 0.993 | 0.913 | 0.955 | 0.908 | 0.514 | 0.456 | 0.467 | 0.484 | 0.234 | 0.219 | 0.176 | 0.211 | 0.215 | 0.207 | 0.339 | 0.328 | 0.333 | 0.264 | 0.262
10 | LU99A | 0.548 | 0.522 | 0.671 | 0.417 | 0.46 | 0.448 | 0.395 | 0.451 | 0.417 | 0.271 | 0.41 | 0.306 | 0.358 | 0.399 | 0.334 | 0.954 | 1.07 | 0.951 | 0.972 | 0.945
11 | LC-2-ad | 0.265 | 0.414 | 0.459 | 0.416 | 0.389 | 0.479 | 0.516 | 0.454 | 0.532 | 0.453 | 0.876 | 0.887 | 0.778 | 0.857 | 0.849 | 0.764 | 0.842 | 0.831 | 0.92 | 0.759
12 | NCI-H460 | 0.887 | 0.882 | 0.273 | 0.0178 | 0.006 | 0.171 | 0.126 | 0.256 | 0.257 | 0.086 | 0.63 | 0.646 | 0.739 | 0.631 | 0.766 | 0.445 | 0.375 | 0.282 | 0.0686 | 0.0323
13 | HOP-62 | 1.04 | 1.02 | 0.956 | 0.901 | 1.01 |  | 0.465 | 0.459 | 0.348 | 0.346 |  | 0.643 | 0.517 | 0.748 | 0.531 | 0.217 | 0.249 | 0.187 | 0.228 | 0.206
14 | NCI-H441 | 0.827 | 0.644 | 0.63 | 0.487 | 0.48 | 0.249 | 0.264 | 0.256 | 0.231 | 0.192 | 1.21 | 1.29 | 1.04 | 1.3 | 0.974 | 0.597 | 0.241 | 0.243 | 0.157 | 0.183
15 | NCI-H1993 | 1.08 | 0.812 | 0.839 | 0.721 | 0.822 | 0.581 | 0.626 | 0.48 | 0.688 | 0.524 | 0.823 | 0.824 | 0.614 | 0.869 | 0.739 | 0.625 | 0.582 | 0.546 | 0.551 | 0.549
16 | NCI-H1734 | 0.714 | 0.788 | 0.583 | 0.517 | 0.588 | 0.361 | 0.327 | 0.367 | 0.351 | 0.214 | 0.554 | 0.508 | 0.557 | 0.502 | 0.374 | 0.491 | 0.494 | 0.478 | 0.462 | 0.513
